Results reported in patent US12157741B2, “Macrocyclic inhibitors of DYRK1A” (DANA-FARBER CANCER INSTITUTE, INC., priority 2018, dated 2024).
Where two headings read alike, the source gives them in different places.

How the values were obtained:
Assay type in all cases: binding
various enzymes [1] = target: various enzymes (Homo sapiens, UniProt Q5VT25); settings: compound 1 uM
Description: (§1) Ambit profiling was conducted in accordance with the manufacturer's instructions.

various enzymes [2] = target: various enzymes (Homo sapiens, UniProt Q8WXR4); settings: compound 1 uM
Sequence of various enzymes (Homo sapiens, UniProt Q8WXR4) (Q8WXR4 whole entry): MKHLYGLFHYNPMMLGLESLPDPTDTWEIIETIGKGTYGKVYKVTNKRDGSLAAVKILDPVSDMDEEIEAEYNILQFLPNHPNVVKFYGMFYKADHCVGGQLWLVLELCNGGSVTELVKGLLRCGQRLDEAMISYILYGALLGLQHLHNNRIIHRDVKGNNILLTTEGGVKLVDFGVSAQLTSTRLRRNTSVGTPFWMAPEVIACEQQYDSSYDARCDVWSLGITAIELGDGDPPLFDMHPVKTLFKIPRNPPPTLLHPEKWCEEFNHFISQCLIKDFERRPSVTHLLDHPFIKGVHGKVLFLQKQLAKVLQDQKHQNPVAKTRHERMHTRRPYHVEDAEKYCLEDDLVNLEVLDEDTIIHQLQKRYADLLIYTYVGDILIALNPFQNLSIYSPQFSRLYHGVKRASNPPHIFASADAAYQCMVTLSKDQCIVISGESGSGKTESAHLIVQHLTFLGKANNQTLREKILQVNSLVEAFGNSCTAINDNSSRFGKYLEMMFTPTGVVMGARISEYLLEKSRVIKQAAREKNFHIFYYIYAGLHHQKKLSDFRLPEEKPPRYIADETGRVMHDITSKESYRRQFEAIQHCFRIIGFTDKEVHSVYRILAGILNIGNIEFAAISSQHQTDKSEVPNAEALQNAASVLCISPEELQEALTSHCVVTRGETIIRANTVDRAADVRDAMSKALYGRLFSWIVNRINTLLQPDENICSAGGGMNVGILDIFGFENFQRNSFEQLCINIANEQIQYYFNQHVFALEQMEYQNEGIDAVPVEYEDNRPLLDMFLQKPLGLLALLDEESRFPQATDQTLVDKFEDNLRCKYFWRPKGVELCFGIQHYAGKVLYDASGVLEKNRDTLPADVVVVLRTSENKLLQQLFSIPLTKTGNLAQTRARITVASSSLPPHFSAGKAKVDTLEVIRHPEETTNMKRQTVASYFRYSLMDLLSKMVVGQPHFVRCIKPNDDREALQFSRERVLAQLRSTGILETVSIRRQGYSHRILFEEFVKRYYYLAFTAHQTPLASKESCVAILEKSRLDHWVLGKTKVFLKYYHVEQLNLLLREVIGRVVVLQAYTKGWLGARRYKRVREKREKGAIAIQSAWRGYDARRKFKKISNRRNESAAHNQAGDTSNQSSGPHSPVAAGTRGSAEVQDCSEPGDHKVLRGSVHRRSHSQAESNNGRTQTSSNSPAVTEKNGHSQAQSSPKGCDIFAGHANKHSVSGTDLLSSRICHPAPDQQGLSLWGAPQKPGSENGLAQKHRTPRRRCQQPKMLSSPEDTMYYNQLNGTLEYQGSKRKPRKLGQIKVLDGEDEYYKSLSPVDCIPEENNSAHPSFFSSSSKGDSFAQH
Description: as §1

various enzymes [3] = target: various enzymes (Homo sapiens, UniProt P11309); settings: compound 1 uM
Description: as §1

various enzymes [4] = target: various enzymes (Homo sapiens, UniProt O60674); settings: compound 1 uM
Description: as §1

various enzymes [5] = target: various enzymes (Homo sapiens, UniProt P04049); settings: compound 1 uM
Description: as §1

various enzymes [6] = target: various enzymes (Homo sapiens, UniProt Q9Y6M4); settings: compound 1 uM
Description: as §1

various enzymes [7] = target: various enzymes (Homo sapiens, UniProt Q9C098); settings: compound 1 uM
Description: as §1

various enzymes [8] = target: various enzymes (Homo sapiens, UniProt Q16566); settings: compound 1 uM
Description: as §1

various enzymes [9] = target: various enzymes (Homo sapiens, UniProt Q6P2M8); settings: compound 1 uM
Description: as §1

various enzymes [10] = target: various enzymes (Homo sapiens, UniProt Q96SB4); settings: compound 1 uM
Description: as §1

various enzymes [11] = target: various enzymes (Homo sapiens, UniProt P08631); settings: compound 1 uM
Description: as §1

various enzymes [12] = target: various enzymes (Homo sapiens, UniProt P21709); settings: compound 1 uM
Sequence of various enzymes (Homo sapiens, UniProt P21709) (P21709 26-976): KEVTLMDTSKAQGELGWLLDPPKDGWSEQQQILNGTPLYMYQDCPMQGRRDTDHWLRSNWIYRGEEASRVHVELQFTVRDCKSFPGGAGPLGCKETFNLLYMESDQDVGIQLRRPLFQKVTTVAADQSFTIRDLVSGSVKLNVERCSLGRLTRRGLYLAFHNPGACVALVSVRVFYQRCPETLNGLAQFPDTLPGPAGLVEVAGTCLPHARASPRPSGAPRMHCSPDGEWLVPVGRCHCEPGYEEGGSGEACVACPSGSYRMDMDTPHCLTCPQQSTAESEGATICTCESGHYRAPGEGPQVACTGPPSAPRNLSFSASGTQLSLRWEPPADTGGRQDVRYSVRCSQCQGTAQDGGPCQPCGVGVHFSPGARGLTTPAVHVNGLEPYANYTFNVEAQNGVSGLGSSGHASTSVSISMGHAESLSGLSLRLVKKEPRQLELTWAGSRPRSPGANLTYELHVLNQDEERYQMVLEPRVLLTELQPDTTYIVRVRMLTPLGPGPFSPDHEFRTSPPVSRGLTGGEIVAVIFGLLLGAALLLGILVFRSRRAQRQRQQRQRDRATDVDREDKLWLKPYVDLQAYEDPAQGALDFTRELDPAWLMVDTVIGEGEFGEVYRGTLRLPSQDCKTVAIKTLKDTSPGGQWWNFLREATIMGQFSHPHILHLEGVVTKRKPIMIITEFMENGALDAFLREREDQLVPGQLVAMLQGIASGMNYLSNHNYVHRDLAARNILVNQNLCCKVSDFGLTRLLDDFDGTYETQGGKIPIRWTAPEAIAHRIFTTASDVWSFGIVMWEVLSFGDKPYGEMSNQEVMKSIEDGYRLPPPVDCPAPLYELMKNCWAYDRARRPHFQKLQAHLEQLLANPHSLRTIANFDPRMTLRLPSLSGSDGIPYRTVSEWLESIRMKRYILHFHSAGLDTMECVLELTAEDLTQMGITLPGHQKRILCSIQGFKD
Description: as §1

various enzymes [13] = target: various enzymes (Homo sapiens, UniProt Q96J92); settings: compound 1 uM
Description: as §1

various enzymes [14] = target: T1, various enzymes (Homo sapiens, UniProt Q13043); settings: compound 1 uM
T1 sequence (Q13043 1-487): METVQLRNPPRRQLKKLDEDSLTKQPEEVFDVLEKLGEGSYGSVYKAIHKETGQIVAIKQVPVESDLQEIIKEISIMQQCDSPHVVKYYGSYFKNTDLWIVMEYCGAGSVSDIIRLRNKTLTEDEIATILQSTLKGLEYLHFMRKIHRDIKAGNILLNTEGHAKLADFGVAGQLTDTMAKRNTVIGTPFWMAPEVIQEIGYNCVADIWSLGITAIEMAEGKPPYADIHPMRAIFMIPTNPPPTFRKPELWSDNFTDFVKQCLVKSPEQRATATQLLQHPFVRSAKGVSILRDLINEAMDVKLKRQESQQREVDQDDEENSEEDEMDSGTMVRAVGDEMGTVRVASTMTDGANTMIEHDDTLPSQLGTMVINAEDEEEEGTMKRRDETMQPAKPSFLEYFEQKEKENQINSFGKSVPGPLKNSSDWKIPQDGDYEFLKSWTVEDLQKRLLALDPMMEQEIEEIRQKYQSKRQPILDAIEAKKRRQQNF
Description: as §1

various enzymes [15] = target: various enzymes (Homo sapiens, UniProt P48736); settings: compound 1 uM
Description: as §1

various enzymes [16] = target: various enzymes (Homo sapiens, UniProt Q8IVW4); settings: compound 1 uM
Description: as §1

various enzymes [17] = target: various enzymes (Homo sapiens, UniProt P08922); settings: compound 1 uM
Description: as §1

various enzymes [18] = target: various enzymes (Homo sapiens, UniProt Q9NSY1); settings: compound 1 uM
Description: as §1

various enzymes [19] = target: various enzymes (Homo sapiens, UniProt P15056, V600E)
Description: as §1

various enzymes [20] = target: various enzymes (Homo sapiens, UniProt P36888, N841I); settings: compound 1 uM
Description: as §1

various enzymes [21] = target: various enzymes (Homo sapiens, UniProt Q9P0L2); settings: compound 1 uM
Description: as §1

various enzymes [22] = target: various enzymes (Homo sapiens, UniProt P00519, M351T)
Description: as §1

various enzymes [23] = target: various enzymes (Homo sapiens, UniProt Q15303); settings: compound 1 uM
Description: as §1

various enzymes [24] = target: various enzymes (Homo sapiens, UniProt P37173); settings: compound 1 uM
Description: as §1

various enzymes [25] = target: various enzymes (Homo sapiens, UniProt P00519, Q252H); settings: compound 1 uM
Description: as §1

various enzymes [26] = target: various enzymes (Homo sapiens, UniProt Q9Y2I7); settings: compound 1 uM
Description: as §1

various enzymes [27] = target: various enzymes (Homo sapiens, UniProt P07947); settings: compound 1 uM
Description: as §1

various enzymes [28] = target: various enzymes (Homo sapiens, UniProt Q08345); settings: compound 1 uM
Description: as §1

various enzymes [29] = target: various enzymes (Homo sapiens, UniProt Q9UK32); settings: compound 1 uM
Sequence of various enzymes (Homo sapiens, UniProt Q9UK32) (Q9UK32 whole entry): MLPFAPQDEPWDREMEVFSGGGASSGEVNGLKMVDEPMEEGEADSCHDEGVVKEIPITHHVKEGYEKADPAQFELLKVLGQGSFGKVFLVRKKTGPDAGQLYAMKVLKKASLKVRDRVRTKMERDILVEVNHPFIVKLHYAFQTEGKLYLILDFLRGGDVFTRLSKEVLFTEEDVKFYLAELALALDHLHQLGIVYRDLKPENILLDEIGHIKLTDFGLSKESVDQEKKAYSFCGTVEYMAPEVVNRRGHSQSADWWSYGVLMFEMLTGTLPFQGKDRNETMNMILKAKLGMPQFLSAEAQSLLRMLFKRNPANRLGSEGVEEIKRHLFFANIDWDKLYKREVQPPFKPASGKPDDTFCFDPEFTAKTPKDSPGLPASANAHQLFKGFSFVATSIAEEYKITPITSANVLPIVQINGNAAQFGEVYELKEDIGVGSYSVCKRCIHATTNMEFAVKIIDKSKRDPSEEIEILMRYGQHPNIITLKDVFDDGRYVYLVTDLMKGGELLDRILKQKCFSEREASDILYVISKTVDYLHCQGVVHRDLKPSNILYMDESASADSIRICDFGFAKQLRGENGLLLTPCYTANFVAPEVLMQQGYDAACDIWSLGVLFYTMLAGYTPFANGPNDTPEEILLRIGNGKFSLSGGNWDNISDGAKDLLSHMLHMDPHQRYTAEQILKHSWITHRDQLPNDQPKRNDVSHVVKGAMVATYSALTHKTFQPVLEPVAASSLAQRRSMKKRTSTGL
Description: as §1

various enzymes [30] = target: various enzymes (Homo sapiens, UniProt P42336, E545A)
Description: as §1

various enzymes [31] = target: various enzymes (Homo sapiens, UniProt Q13237); settings: compound 1 uM
Description: as §1

various enzymes [32] = target: various enzymes (Homo sapiens, UniProt Q9P286); settings: compound 1 uM
Sequence of various enzymes (Homo sapiens, UniProt Q9P286) (Q9P286 whole entry): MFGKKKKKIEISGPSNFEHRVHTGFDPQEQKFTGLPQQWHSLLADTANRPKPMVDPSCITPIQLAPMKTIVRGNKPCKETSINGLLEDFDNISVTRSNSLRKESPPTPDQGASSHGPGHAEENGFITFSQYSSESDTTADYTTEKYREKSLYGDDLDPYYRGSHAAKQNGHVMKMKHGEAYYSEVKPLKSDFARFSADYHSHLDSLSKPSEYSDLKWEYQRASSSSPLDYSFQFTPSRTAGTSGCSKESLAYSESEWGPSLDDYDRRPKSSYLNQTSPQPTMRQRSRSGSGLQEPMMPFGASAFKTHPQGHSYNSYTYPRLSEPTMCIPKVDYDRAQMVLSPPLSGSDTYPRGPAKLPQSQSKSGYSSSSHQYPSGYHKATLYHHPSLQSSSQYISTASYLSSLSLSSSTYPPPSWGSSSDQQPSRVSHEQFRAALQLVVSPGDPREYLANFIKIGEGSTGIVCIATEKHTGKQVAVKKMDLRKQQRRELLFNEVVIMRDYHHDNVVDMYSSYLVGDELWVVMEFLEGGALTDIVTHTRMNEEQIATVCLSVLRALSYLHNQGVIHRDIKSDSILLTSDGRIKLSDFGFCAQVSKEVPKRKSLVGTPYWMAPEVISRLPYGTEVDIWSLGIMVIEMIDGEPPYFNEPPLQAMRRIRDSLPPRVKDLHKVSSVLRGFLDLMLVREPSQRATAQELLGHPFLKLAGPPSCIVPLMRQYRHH
Description: as §1

various enzymes [33] = target: various enzymes (Homo sapiens, UniProt Q9NRP7); settings: compound 1 uM
Description: as §1

various enzymes [34] = target: various enzymes (Homo sapiens, UniProt Q9HBH9); settings: compound 1 uM
Description: as §1

various enzymes [35] = target: various enzymes (Homo sapiens, UniProt P29597); settings: compound 1 uM
Sequence of various enzymes (Homo sapiens, UniProt P29597) (P29597 whole entry): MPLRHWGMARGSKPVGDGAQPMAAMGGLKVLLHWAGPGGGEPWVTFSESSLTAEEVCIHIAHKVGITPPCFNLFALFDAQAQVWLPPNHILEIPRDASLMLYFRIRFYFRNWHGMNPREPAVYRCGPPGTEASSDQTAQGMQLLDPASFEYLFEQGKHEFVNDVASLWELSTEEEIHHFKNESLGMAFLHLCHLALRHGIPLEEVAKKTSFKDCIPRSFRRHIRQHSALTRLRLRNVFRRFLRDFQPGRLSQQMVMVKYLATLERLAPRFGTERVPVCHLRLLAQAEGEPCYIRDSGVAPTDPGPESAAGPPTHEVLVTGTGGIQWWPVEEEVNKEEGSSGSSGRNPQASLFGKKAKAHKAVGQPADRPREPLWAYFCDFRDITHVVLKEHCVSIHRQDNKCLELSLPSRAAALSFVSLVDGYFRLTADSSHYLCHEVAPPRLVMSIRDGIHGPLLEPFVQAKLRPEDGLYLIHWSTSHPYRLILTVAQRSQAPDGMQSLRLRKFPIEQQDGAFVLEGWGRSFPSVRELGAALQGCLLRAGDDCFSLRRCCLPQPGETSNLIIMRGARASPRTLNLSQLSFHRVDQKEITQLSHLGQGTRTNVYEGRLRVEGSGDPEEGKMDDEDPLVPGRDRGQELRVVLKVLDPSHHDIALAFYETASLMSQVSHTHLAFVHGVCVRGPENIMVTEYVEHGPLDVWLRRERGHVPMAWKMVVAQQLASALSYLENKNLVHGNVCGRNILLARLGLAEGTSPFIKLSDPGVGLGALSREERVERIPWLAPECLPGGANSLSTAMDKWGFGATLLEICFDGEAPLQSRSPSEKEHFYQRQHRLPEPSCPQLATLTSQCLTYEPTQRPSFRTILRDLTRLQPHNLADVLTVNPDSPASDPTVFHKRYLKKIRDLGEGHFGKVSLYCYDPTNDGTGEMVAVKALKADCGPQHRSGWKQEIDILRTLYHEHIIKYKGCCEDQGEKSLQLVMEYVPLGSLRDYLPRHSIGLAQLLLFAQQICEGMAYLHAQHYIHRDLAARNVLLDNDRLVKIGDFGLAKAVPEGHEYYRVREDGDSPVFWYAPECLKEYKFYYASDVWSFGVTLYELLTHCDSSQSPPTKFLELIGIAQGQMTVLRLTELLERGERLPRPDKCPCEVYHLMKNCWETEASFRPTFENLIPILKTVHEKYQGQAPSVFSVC
Description: as §1

various enzymes [36] = target: various enzymes (Homo sapiens, UniProt Q16620); settings: compound 1 uM
Description: as §1

various enzymes [37] = target: various enzymes (Homo sapiens, UniProt Q92630); settings: compound 1 uM
Description: as §1

**Q.** Which “Ambit profiling: MRCKA” value (various enzymes [1]) does the source give for `CC(C)N1Cc2nn(C)cc2-c2cnc3[nH]cc(c3c2)-c2cn(nc2C(F)(F)F)CCCC1=O` [Compound 45, (Z)-5-isopropyl-31-methyl-13-(trifluoromethyl)-11H,21H,31H-5-aza-2(3,5)-pyrrolo[2,3-b]pyridina-1(4,1),3(4,3)-dipyrazolacyclononaphan-6-one] here?
**A.** 100

**Q.** What about the “Ambit profiling: MYO3B” value (various enzymes [2]) of the same compound?
**A.** 6.7

**Q.** And the “Ambit profiling: PIM1” value (various enzymes [3])?
**A.** 75

**Q.** What about the “Ambit profiling: JAK2(JH1domain-catalytic)” value (various enzymes [4]) of the same compound?
**A.** 4.9

**Q.** And the “Ambit profiling: RAF1” value (various enzymes [5])?
**A.** 100

**Q.** What about the “Ambit profiling: CSNK1G3” value (various enzymes [6]) of the same compound?
**A.** 100

**Q.** What about the “Ambit profiling: DCAMKL3” value (various enzymes [7]) of the same compound?
**A.** 19

**Q.** And the “Ambit profiling: CAMK4” value (various enzymes [8])?
**A.** 100

**Q.** And the “Ambit profiling: CAMK1B” value (various enzymes [9])?
**A.** 25

**Q.** What about the “Ambit profiling: SRPK1” value (various enzymes [10]) of the same compound?
**A.** 4.5

**Q.** And the “Ambit profiling: HCK” value (various enzymes [11])?
**A.** 24

**Q.** What about the “Ambit profiling: EPHA1” value (various enzymes [12]) of the same compound?
**A.** 26

**Q.** What about the “Ambit profiling: WNK4” value (various enzymes [13]) of the same compound?
**A.** 97

**Q.** What about the “Ambit profiling: MST1” value (various enzymes [14]) of the same compound?
**A.** 2.8

**Q.** What about the “Ambit profiling: PIK3CG” value (various enzymes [15]) of the same compound?
**A.** 94

**Q.** And the “Ambit profiling: CDKL3” value (various enzymes [16])?
**A.** 100

**Q.** What about the “Ambit profiling: ROS1” value (various enzymes [17]) of the same compound?
**A.** 11

**Q.** What about the “Ambit profiling: BIKE” value (various enzymes [18]) of the same compound?
**A.** 1.2

**Q.** What about the “Ambit profiling: BRAF(V600E)” value (various enzymes [19]; compound 1 uM) of the same compound?
**A.** 100

**Q.** And the “Ambit profiling: FLT3(N841I)” value (various enzymes [20])?
**A.** 0

**Q.** What about the “Ambit profiling: MARK1” value (various enzymes [21]) of the same compound?
**A.** 33

**Q.** And the “Ambit profiling: ABL1(M351T)-phosphorylated” value (various enzymes [22]; compound 1 uM)?
**A.** 19

**Q.** And the “Ambit profiling: ERBB4” value (various enzymes [23])?
**A.** 55

**Q.** And the “Ambit profiling: TGFBR2” value (various enzymes [24])?
**A.** 91

**Q.** What about the “Ambit profiling: ABL1(Q252H)-nonphosphorylated” value (various enzymes [25]) of the same compound?
**A.** 3.2

**Q.** What about the “Ambit profiling: ABL1(Q252H)-phosphorylated” value (various enzymes [25]) of the same compound?
**A.** 20

**Q.** And the “Ambit profiling: PIKFYVE” value (various enzymes [26])?
**A.** 13

**Q.** What about the “Ambit profiling: YES” value (various enzymes [27]) of the same compound?
**A.** 56

**Q.** What about the “Ambit profiling: DDR1” value (various enzymes [28]) of the same compound?
**A.** 0.15

**Q.** What about the “Ambit profiling: RSK4(Kin.Dom.1-N-terminal)” value (various enzymes [29]) of the same compound?
**A.** 2.6

**Q.** What about the “Ambit profiling: RSK4(Kin.Dom.2-C-terminal)” value (various enzymes [29]) of the same compound?
**A.** 95

**Q.** And the “Ambit profiling: PIK3CA(E545A)” value (various enzymes [30]; compound 1 uM)?
**A.** 56

**Q.** What about the “Ambit profiling: PRKG2” value (various enzymes [31]) of the same compound?
**A.** 100

**Q.** And the “Ambit profiling: PAK7” value (various enzymes [32])?
**A.** 51

**Q.** What about the “Ambit profiling: STK36” value (various enzymes [33]) of the same compound?
**A.** 100

**Q.** And the “Ambit profiling: MKNK2” value (various enzymes [34])?
**A.** 100

**Q.** And the “Ambit profiling: TYK2(JH1domain-catalytic)” value (various enzymes [35])?
**A.** 19

**Q.** And the “Ambit profiling: TYK2(JH2domain-pseudokinase)” value (various enzymes [35])?
**A.** 100

**Q.** And the “Ambit profiling: TRKB” value (various enzymes [36])?
**A.** 0.25

**Q.** And the “Ambit profiling: DYRK2” value (various enzymes [37])?
**A.** 25

**Q.** Which results are given for `COc1c2c(nn1C)CN(C(C)C)C(=O)CCCn1cc(c(C(F)(F)F)n1)-c1c[nH]c3ncc-2cc13` [Compound 50, (Z)-5-isopropyl-35-methoxy-31-methyl-13-(trifluoromethyl)-11H,21H,31H-5-aza-2(3,5)-pyrrolo[2,3-b]pyridina-1(4,1),3(4,3)-dipyrazolacyclononaphan-6-one]?
**A.** Ambit profiling: MRCKA (various enzymes [1]): 99; Ambit profiling: MYO3B (various enzymes [2]): 9; Ambit profiling: PIM1 (various enzymes [3]): 77; Ambit profiling: JAK2(JH1domain-catalytic) (various enzymes [4]): 29; Ambit profiling: RAF1 (various enzymes [5]): 93; Ambit profiling: CSNK1G3 (various enzymes [6]): 79; Ambit profiling: DCAMKL3 (various enzymes [7]): 56; Ambit profiling: CAMK4 (various enzymes [8]): 100; Ambit profiling: CAMK1B (various enzymes [9]): 16; Ambit profiling: SRPK1 (various enzymes [10]): 30; Ambit profiling: HCK (various enzymes [11]): 8.1; Ambit profiling: EPHA1 (various enzymes [12]): 29; Ambit profiling: WNK4 (various enzymes [13]): 100; Ambit profiling: MST1 (various enzymes [14]): 2.2; Ambit profiling: PIK3CG (various enzymes [15]): 54; Ambit profiling: CDKL3 (various enzymes [16]): 80; Ambit profiling: ROS1 (various enzymes [17]): 5.1; Ambit profiling: BIKE (various enzymes [18]): 10; Ambit profiling: BRAF(V600E) (various enzymes [19]): 93; Ambit profiling: FLT3(N841) (various enzymes [20]): 0; Ambit profiling: MARK1 (various enzymes [21]): 39; Ambit profiling: ABL1(M351T)-phosphorylated (various enzymes [22]): 4.1; Ambit profiling: ERBB4 (various enzymes [23]): 32; Ambit profiling: TGFBR2 (various enzymes [24]): 20; Ambit profiling: ABL1(Q252H)-nonphosphorylated (various enzymes [25]): 2.4; Ambit profiling: ABL1(Q252H)-phosphorylated (various enzymes [25]): 1.6; Ambit profiling: PIKFYVE (various enzymes [26]): 11; Ambit profiling: YES (various enzymes [27]): 21; Ambit profiling: DDR1 (various enzymes [28]): 0.35; Ambit profiling: RSK4(Kin.Dom.1-N-terminal) (various enzymes [29]): 2.3; Ambit profiling: RSK4(Kin.Dom.2-C-terminal) (various enzymes [29]): 74; Ambit profiling: PIK3CA(E545A) (various enzymes [30]): 82; Ambit profiling: PRKG2 (various enzymes [31]): 87; Ambit profiling: PAK7 (various enzymes [32]): 100; Ambit profiling: STK36 (various enzymes [33]): 100; Ambit profiling: MKNK2 (various enzymes [34]): 53; Ambit profiling: TYK2(JH1domain-catalytic) (various enzymes [35]): 19; Ambit profiling: TYK2(JH2domain-pseudokinase) (various enzymes [35]): 84; Ambit profiling: TRKB (various enzymes [36]): 0; Ambit profiling: DYRK2 (various enzymes [37]): 56
